Results from publication PMC6375636, “Monotherapy with a low-dose lipopeptide HIV fusion inhibitor maintains long-term viral suppression in rhesus macaques” (PLoS Pathogens, 2019).
Where two headings read alike, the source gives them in different places. Peptide text beside a SMILES is read from it. * marks the point of attachment. Stearoyl = CCCCCCCCCCCCCCCCCC(=O)*; Palmitoyl = CCCCCCCCCCCCCCCC(=O)*

Tests used:
[1] = test system: HIV-1 pseudovirus, primary Env CE703010217_B6; assay type: cell-based; settings: Env CE703010217_B6, subtype C; mean ± SD of 3 assays in triplicate
How it was run: (§1)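 Steps: transfect HEK293T to produce virus, harvesting supernatants at 48 h; titrate on TZM-bl; mix 100 TCID50 with inhibitor in threefold dilutions for 1 h at room temperature; infect TZM-bl cells, 10^4 per well; after 48 h at 37°C, measure luciferase.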

[2] = test system: divergent HIV-1 subtypes (pseudoviruses with primary Envs); assay type: cell-based; settings: mean of the 36 pseudoviruses of Table 3; for VRC01 >300000 apparently counted as 300000; read-out: Mean IC50 over divergent HIV-1 subtypes
How it was run: as §1

[3] = target: T1, gp41 NHR-derived target mimic peptide N39 (Human immunodeficiency virus type 1 group M subtype B, UniProt P04578); experiment: CD spectroscopy of lipopeptides in complex with target mimic peptide N39; assay type: binding, HIV-1; parameters: [θ]222: unit not given here; settings: complex with N39, each peptide 10 μM in PBS; representative of 2 assays
T1 construct: the gp41 NHR-derived target mimic peptide N39
Text: Spectra were corrected by subtracting a solvent blank.

[4] = lipopeptide alone, 10 μM in PBS, representative of 2 assays; for Helix content (%): [θ]222 / -33,000; for Tm (°C): ellipticity at 222 nm, 20-98°C, 2°C/min
[5] = test system: NL4-3G36S/V38M pseudovirus; assay type: cell-based, HIV-1; settings: T-20 resistant, mean ± SD of 3 assays in triplicate
Description: (§2) The inhibitory activities of inhibitors against HIV-1 pseudoviruses and replication-competent isolates were measured as described previously. Briefly, HIV-1 pseudoviruses were generated via the cotransfection of HEK293T cells with an Env-expressing plasmid and a backbone plasmid that encodes Env-defective, luciferase-expressing HIV-1 genome (pSG3Δenv). Viral stocks of replication-competent HIV-1 isolates were generated by transfecting viral molecular clones into HEK293T cells. […] Inhibitors were prepared in 3-fold dilutions, mixed with 100 TCID50 of a virus, and then incubated for 1 h at room temperature. […] Luciferase activity was measured as described above.

NL4-3I37T pseudovirus = assay type: cell-based, HIV-1; settings: T-20 resistant, mean ± SD of 3 assays in triplicate
Description: as §2

[6] = test system: NL4-3I37T/N43K pseudovirus; assay type: cell-based, HIV-1; settings: T-20 resistant, mean ± SD of 3 assays in triplicate
Description: as §2

NL4-3N43K pseudovirus = assay type: cell-based, HIV-1; settings: T-20 resistant, mean ± SD of 3 assays in triplicate
Description: as §2

NL4-3Q40H pseudovirus = assay type: cell-based, HIV-1; settings: T-20 resistant, mean ± SD of 3 assays in triplicate
Description: as §2

NL4-3V38A pseudovirus = assay type: cell-based, HIV-1; settings: T-20 resistant, mean ± SD of 3 assays in triplicate
Description: as §2

NL4-3V38M pseudovirus = assay type: cell-based, HIV-1; settings: T-20 resistant, mean ± SD of 3 assays in triplicate
Description: as §2

in vivo [7] = settings: rhesus monkey, sc, 3 mg/kg
Description: (§3) A single-cycle infection assay was performed to determine the inhibitory activity of the monkey sera on HIV-1NL4-3 pseudovirus. The 50% effective concentration was defined as the fold serum dilution that inhibited 50% of virus infection.

HIV-1NL4-3 pseudovirus = experiment: Ex vivo inhibitory activity of sera from monkeys administrated LP-80 (single-cycle infection assay); assay type: in vivo, Chinese rhesus macaques; settings: monkey sera after SC 3 mg/kg
Description: as §3

SHIVSF162P3 = experiment: Therapeutic efficacy in chronically SHIV-infected rhesus monkeys; assay type: in vivo, Chinese rhesus macaques
[8] = rat, in vivo, sc, 6 mg/kg
[9] = Rat IV, 6 mg/kg, n = 6; serum, LC-MS/MS, non-compartmental
in vivo [10] = settings: Sprague-Dawley, rat, 6 mg/kg
[11] = test system: NL4-3V38A/N42T pseudovirus; assay type: cell-based, HIV-1; settings: T-20 resistant, mean ± SD of 3 assays in triplicate
Description: as §2

NL4-3WT pseudovirus = assay type: cell-based, HIV-1; settings: T-20 resistant, mean ± SD of 3 assays in triplicate, value in parentheses behind the bound
Description: as §2

T1 sequence (P04578 528-566): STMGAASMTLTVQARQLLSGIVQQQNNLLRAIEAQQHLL

## CCCCCCCCCCCCCCCC(=O)NCCCC[C@H](NC(=O)[C@H](CCC(=O)O)NC(=O)[C@H](CC(C)C)NC(=O)[C@H](CCCCN)NC(=O)[C@H](CCCCN)NC(=O)[C@H](CC(C)C)NC(=O)[C@H](CCC(=O)O)NC(=O)[C@H](CCC(=O)O)NC(=O)[C@H](CCC(=O)O)NC(=O)[C@H](CC(N)=O)NC(=O)[C@H](CCCCN)NC(=O)[C@H](CCCCN)NC(=O)[C@H](CCC(N)=O)NC(=O)[C@H](CCC(N)=O)NC(=O)[C@H](CCC(=O)O)NC(=O)[C@H](CCC(=O)O)NC(=O)[C@H](C)NC(=O)[C@H](CCCCN)NC(=O)[C@H](CCCCN)NC(=O)[C@H](CC(C)C)NC(=O)[C@H](CC(C)C)NC(=O)[C@H](CCC(=O)O)NC(=O)[C@H](CCC(=O)O)NC(=O)[C@@H](NC(=O)[C@H](CCCCN)NC(=O)[C@H](CCC(N)=O)NC(=O)[C@H](CCC(=O)O)NC(=O)[C@H](Cc1c[nH]c2ccccc12)NC(C)=O)[C@@H](C)CC)C(N)=O [LP-52, reference compound] (Ac-WEQKIEELLKKAEEQQKKNEEELKKLEK(Palmitoyl)-NH2)
[1]
  IC50: 0.0117 ± 0.00137 nM
[2]
  IC50: 0.017 nM
[3]
  Helix content (%): 64%
  [θ]222: -21060
[4]; room temperature
  [θ]222: -14952 degree.cm^2.dmol^-1
[4]
  Helix content (%): 45%
  Tm (°C): 56 °C

## CCCCCCCCCCCCCCCCCC(=O)NCCCC[C@H](NC(=O)[C@H](CCC(=O)O)NC(=O)[C@H](CC(C)C)NC(=O)[C@H](CCCCN)NC(=O)[C@H](CCCCN)NC(=O)[C@H](CC(C)C)NC(=O)[C@H](CCC(=O)O)NC(=O)[C@H](CCC(=O)O)NC(=O)[C@H](CCC(=O)O)NC(=O)[C@H](CC(N)=O)NC(=O)[C@H](CCCCN)NC(=O)[C@H](CCCCN)NC(=O)[C@H](CCC(N)=O)NC(=O)[C@H](CCC(N)=O)NC(=O)[C@H](CCC(=O)O)NC(=O)[C@H](CCC(=O)O)NC(=O)[C@H](C)NC(=O)[C@H](CCCCN)NC(=O)[C@H](CCCCN)NC(=O)[C@H](CC(C)C)NC(=O)[C@H](CC(C)C)NC(=O)[C@H](CCC(=O)O)NC(=O)[C@H](CCC(=O)O)NC(=O)[C@@H](NC(=O)[C@H](CCCCN)NC(=O)[C@H](CCC(N)=O)NC(=O)[C@H](CCC(=O)O)NC(=O)[C@H](Cc1c[nH]c2ccccc12)NC(C)=O)[C@@H](C)CC)C(N)=O [LP-80] (Ac-WEQKIEELLKKAEEQQKKNEEELKKLEK(Stearoyl)-NH2)
[1]
  IC50: 0.00572 ± 0.00132 nM
[2]
  IC50: 0.00558 nM
[3]
  Helix content (%): 57%
  [θ]222: -18955
[5]
  IC50: 0.07 ± 0.01 nM
NL4-3I37T pseudovirus
  IC50: 0.05 nM
[6]
  IC50: 3.79 ± 0.05 nM
NL4-3N43K pseudovirus
  IC50: 0.25 ± 0.02 nM
NL4-3Q40H pseudovirus
  IC50: 0.13 ± 0.02 nM
NL4-3V38A pseudovirus
  IC50: 0.23 ± 0.03 nM
NL4-3V38M pseudovirus
  IC50: 0.13 ± 0.02 nM
In vivo [7]
  AUC(0-inf): 601 ± 29.3 µg·h/mL
  AUC(0-t): 601 ± 29.3 µg·h/mL
  CL/F: 0.0833 mL/min/kg
  Cmax: 24800 ± 10800 ng/mL
  MRT: 23.7 ± 2.26 h
  Tmax: 5.83 ± 3.82 h
  Vd/F: 0.0989 ± 0.0034 L/kg
  half-life: 13.7 ± 0.86 h
HIV-1NL4-3 pseudovirus
  Time of peak serum inhibitory activity after injection: 6 to 8 h
SHIVSF162P3; 1st treatment, SC 3 mg/kg once daily, monkeys K3 and K5, 8 days after treatment, detection limit 100 copies/ml
  Plasma viral load: declined to below the detection limit
SHIVSF162P3; 1st treatment, SC 3 mg/kg once every 4 days for 4 weeks, five monkeys
  Viral replication during treatment: fully controlled
SHIVSF162P3; 2nd treatment, SC 3 mg/kg twice weekly for 6 months
  Viral rebound during treatment: no viral rebound was detected
SHIVSF162P3; 2nd treatment, SC 3 mg/kg twice weekly, all five monkeys, day 4, before: mean 4.5 log10 RNA copies/ml
  Plasma viral load after one injection: below the detection limit
SHIVSF162P3; 2nd treatment, monkeys K1, K2, K4, K5, detection limit 100 copies/μg total DNA
  PBMC vDNA load: undetectable levels
SHIVSF162P3; after 1st treatment, all treated monkeys
  Time to viral load rebound after LP-80 was stopped: 10 to 21 days
SHIVSF162P3; after 2nd treatment, four monkeys (K1 to K4)
  Time to virus rebound after LP-80 cessation: 14 to 28 days
SHIVSF162P3; after 2nd treatment, monkey K5, 2 months after withdrawal
  Viral load after LP-80 withdrawal: remained undetectable
SHIVSF162P3; after a 2-month treatment (2nd treatment), declined from 3.7, quantitative PCR
  Mean PBMC vDNA load: 2.3 log10 vDNA copies/μg total DNA
[8]
  Vd/F: 0.535 ± 0.251 L/kg
[4]
  Helix content (%): 52%
  Tm (°C): 56 °C
[9]
  Cl_F_obs/Cl_obs: 0.3552 ± 0.0563 mL/min/kg
In vivo [10]
  level at 72 h: ~7 ng/mL
In vivo [10]; iv
  AUC(0-inf): 288 ± 49.4 µg·h/mL
  AUC(0-t): 288 ± 49.4 µg·h/mL
  Cmax: 53300 ± 10600 ng/mL
  MRT: 7.53 ± 0.85 h
  Tmax: 0.08 h
  Vd: 0.183 ± 0.0216 L/kg
In vivo [10]; sc
  AUC(0-inf): 114 ± 33.6 µg·h/mL
  AUC(0-t): 114 ± 33.6 µg·h/mL
  CL/F: 0.958 mL/min/kg
  Cmax: 7650 ± 1580 ng/mL
  MRT: 9.73 ± 1.11 h
  Tmax: 4 ± 2.19 h

## CCCCCCCCCCCCCCCCCC(=O)NCCCC[C@H](NC(=O)[C@H](CCC(=O)O)NC(=O)[C@H](CC(C)C)NC(=O)[C@H](CCCCN)NC(=O)[C@H](CCCCN)NC(=O)[C@H](CC(C)C)NC(=O)[C@H](CCC(=O)O)NC(=O)[C@H](CCC(=O)O)NC(=O)[C@H](CCC(=O)O)NC(=O)[C@H](CC(N)=O)NC(=O)[C@H](CCCCN)NC(=O)[C@H](CCCCN)NC(=O)[C@H](CCC(N)=O)NC(=O)[C@H](CCC(N)=O)NC(=O)[C@H](CCC(=O)O)NC(=O)[C@H](CCC(=O)O)NC(=O)[C@H](C)NC(=O)[C@H](CCCCN)NC(=O)[C@H](CCCCN)NC(=O)[C@H](CC(C)C)NC(=O)[C@H](CC(C)C)NC(=O)[C@H](CCC(=O)O)NC(=O)[C@H](CCC(=O)O)NC(=O)[C@@H](NC(C)=O)[C@@H](C)CC)C(N)=O [LP-90] (Ac-IEELLKKAEEQQKKNEEELKKLEK(Stearoyl)-NH2)
[1]
  IC50: 0.0112 ± 0.00083 nM
[2]
  IC50: 0.0134 nM
[3]
  Helix content (%): 42%
  [θ]222: -13989
[5]
  IC50: 2.37 ± 0.39 nM
NL4-3I37T pseudovirus
  IC50: 0.51 ± 0.09 nM
[6]
  IC50: 46.3 ± 0.79 nM
NL4-3N43K pseudovirus
  IC50: 5.05 ± 0.13 nM
NL4-3Q40H pseudovirus
  IC50: 4.17 ± 0.14 nM
NL4-3V38A pseudovirus
  IC50: 8.25 ± 0.55 nM
[11]
  IC50: 49.2 ± 2.19 nM
NL4-3V38M pseudovirus
  IC50: 4.32 ± 0.78 nM
NL4-3WT pseudovirus
  IC50: 0.03 nM
[4]
  Helix content (%): 30%

## enfuvirtide [Lipopeptide T-20, reference compound]
[1]
  IC50: 41.8 ± 2.22 nM
[2]
  IC50: 30 nM
[5]
  IC50: 317.3 ± 1.65 nM
NL4-3I37T pseudovirus
  IC50: 1220 ± 120 nM
[6]
  IC50: 6950 ± 1140 nM
NL4-3N43K pseudovirus
  IC50: 748 ± 41.9 nM
NL4-3Q40H pseudovirus
  IC50: 1150 ± 88 nM
NL4-3V38A pseudovirus
  IC50: 2240 ± 33.1 nM
[11]
  IC50: 5950 ± 700 nM
NL4-3V38M pseudovirus
  IC50: 1050 ± 74.8 nM
NL4-3WT pseudovirus
  IC50: 166 ± 19 nM
